Values of other authors in US12268209B2, “Liquid sulfonylurea-containing herbicidal compositions” (Mitsui AgriScience International S.A./N.V., priority 2014, dated 2025).

Tests used:
[1] = after one week of storage at 40° C.; compositions of WO 2007/027863 A2
[2] = after 5 days, depending on the selected solvent; 52° C.

Row | Structure (SMILES) | tribenuron-methyl lost [1] | metsulfuron methyl lost [2]
1 | COC(=O)c1ccccc1S(=O)(=O)NC(=O)N(C)c1nc(C)nc(OC)n1 [tribenuron-methyl, methyl 2-[[[[N-(4-methoxy-6-methyl-1,3,5-triazin-2-yl)-N-methylamino]carbonyl]amino]-sulfonyl]benzoate] | up to 66.5% | –
2 | COC(=O)c1ccccc1S(=O)(=O)NC(=O)Nc1nc(C)nc(OC)n1 [metsulfuron-methyl, methyl 2-[[[[(4-methoxy-6-methyl-1,3,5-triazin-2-yl)amino]carbonyl]amino]sulfonyl]benzoate] | – | 25-30%
